In ChEMBL document CHEMBL1135136, “Carbonic anhydrase inhibitors. Preparation of potent sulfonamides inhibitors incorporating bile acid tails” (Bioorg Med Chem Lett, 2002):
Several values for one entry are separate records, joined by “and”; a condition that tells them apart may be missing. Equal entries are not always repeated.

Key:
Carbonic anhydrase 2 = Carbonic anhydrase 2 (Homo sapiens, UniProt P00918)
Description: Inhibitory activity against human recombinant carbonic anhydrase II (CA2)

Carbonic anhydrase 4 = molecular target: T1, Carbonic anhydrase 4 (Bos taurus, UniProt Q95323)
T1 sequence (Q95323 whole entry): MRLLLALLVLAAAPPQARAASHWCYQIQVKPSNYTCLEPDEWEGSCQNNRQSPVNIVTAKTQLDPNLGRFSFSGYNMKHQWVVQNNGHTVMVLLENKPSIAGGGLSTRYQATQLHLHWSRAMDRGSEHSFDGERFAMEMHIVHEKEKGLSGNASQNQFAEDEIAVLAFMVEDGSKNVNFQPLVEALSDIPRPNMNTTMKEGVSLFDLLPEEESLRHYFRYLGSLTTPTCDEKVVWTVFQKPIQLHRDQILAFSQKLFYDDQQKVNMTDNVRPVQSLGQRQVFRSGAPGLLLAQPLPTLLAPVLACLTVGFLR
Description: Inhibitory activity against bovine carbonic anhydrase IV (CA4), obtained from bovine lung microsomes

Carbonic anhydrase 1 = Carbonic anhydrase 1 (Homo sapiens, UniProt P00915)
Chain of Carbonic anhydrase 1 (P00915 whole entry): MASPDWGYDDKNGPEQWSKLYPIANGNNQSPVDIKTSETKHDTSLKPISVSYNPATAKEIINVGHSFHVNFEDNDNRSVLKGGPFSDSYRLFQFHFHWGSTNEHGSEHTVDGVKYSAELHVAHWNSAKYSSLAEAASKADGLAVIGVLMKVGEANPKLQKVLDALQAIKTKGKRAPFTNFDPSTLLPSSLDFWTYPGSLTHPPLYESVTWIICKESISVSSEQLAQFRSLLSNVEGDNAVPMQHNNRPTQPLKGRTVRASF
Description: Inhibitory activity against human recombinant carbonic anhydrase I (CA1)

Oryctolagus cuniculus [1] = organism: Oryctolagus cuniculus
Description: (§1) Tested for level of sulfonamide in red blood cells of albino rabbits at 120 min post-administration of 50 mg/kg sulfonamides

Oryctolagus cuniculus [2] = organism: Oryctolagus cuniculus; remark: listed apart in the source
Description: as §1

Oryctolagus cuniculus [3] = organism: Oryctolagus cuniculus; remark: listed apart in the source
Description: Tested for level of sulfonamide in red blood cells of albino rabbits at 60 min post-administration of 50 mg/kg sulfonamides

Row | Structure (SMILES) | Ki (Carbonic anhydrase 2) [nM] | Ki (Carbonic anhydrase 4) [nM] | Ki (Carbonic anhydrase 1) [nM] | Level (Oryctolagus cuniculus [1]) [µM] | Level (Oryctolagus cuniculus [2]) [µM] | Level (Oryctolagus cuniculus [3])
1 | C[C@H](CCC(=O)Nc1nnc(S(N)(=O)=O)s1)[C@H]1CC[C@H]2[C@@H]3C(=O)C[C@@H]4CC(=O)CC[C@]4(C)[C@H]3CC(=O)[C@]12C | 0.5 | 9 | 41 | 151 | 159 | 155 µM and 162 µM
2 | C[C@H](CCC(=O)Oc1ccc2nc(S(N)(=O)=O)sc2c1)[C@H]1CC[C@H]2[C@@H]3C(=O)C[C@@H]4CC(=O)CC[C@]4(C)[C@H]3CC(=O)[C@]12C | 0.6 | 5 | 33 | 158 | 163 | 156 µM and 159 µM
3 | C[C@H](CCC(=O)OCCOc1ccc2nc(S(N)(=O)=O)sc2c1)[C@H]1CC[C@H]2[C@@H]3CC[C@@H]4C[C@H](O)CC[C@]4(C)[C@H]3CC[C@]12C | 1.4 | 8 | 36 |  |  | 
4 | C[C@H](CCC(=O)/N=c1\sc(S(N)(=O)=O)nn1C)[C@H]1CC[C@H]2[C@@H]3CC[C@@H]4C[C@H](O)CC[C@]4(C)[C@H]3CC[C@]12C | 8 | 21 | 205 |  |  | 
5 | C[C@H](CCC(=O)/N=c1\sc(S(N)(=O)=O)nn1C)[C@H]1CC[C@H]2[C@@H]3[C@@H](O)C[C@@H]4C[C@H](O)CC[C@]4(C)[C@H]3CC[C@]12C | 2 | 17 | 54 |  |  | 
6 | C[C@H](CCC(=O)Nc1ccc(S(N)(=O)=O)cc1F)[C@H]1CC[C@H]2[C@@H]3CC[C@@H]4C[C@H](O)CC[C@]4(C)[C@H]3CC[C@]12C | 29 | 36 | 360 |  |  | 
7 | C[C@H](CCC(=O)NCc1ccc(S(N)(=O)=O)cc1)[C@H]1CC[C@H]2[C@@H]3CC[C@@H]4C[C@H](O)CC[C@]4(C)[C@H]3C[C@H](O)[C@]12C | 80 | 233 | 1710 |  |  | 
8 | C[C@H](CCC(=O)NCc1ccc(S(N)(=O)=O)cc1)[C@H]1CC[C@H]2[C@@H]3C(=O)C[C@@H]4CC(=O)CC[C@]4(C)[C@H]3CC(=O)[C@]12C | 26 | 40 | 600 |  |  | 
9 | C[C@H](CCC(=O)Nc1cccc(S(N)(=O)=O)c1)[C@H]1CC[C@H]2[C@@H]3[C@@H](O)C[C@@H]4C[C@H](O)CC[C@]4(C)[C@H]3CC[C@]12C | 157 | 480 | 7050 |  |  | 
10 | C[C@H](CCC(=O)Nc1c(S(N)(=O)=O)cc(S(N)(=O)=O)c(Cl)c1Cl)[C@H]1CC[C@H]2[C@@H]3C(=O)C[C@@H]4CC(=O)CC[C@]4(C)[C@H]3CC(=O)[C@]12C | 9 | 24 | 45 |  |  | 
11 | C[C@H](CCC(=O)/N=c1\sc(S(N)(=O)=O)nn1C)[C@H]1CC[C@H]2[C@@H]3CC[C@@H]4C[C@H](O)CC[C@]4(C)[C@H]3C[C@H](O)[C@]12C | 11 | 63 | 240 |  |  | 
12 | C[C@H](CCC(=O)NNc1ccc(S(N)(=O)=O)cc1)[C@H]1CC[C@H]2[C@@H]3C(=O)C[C@@H]4CC(=O)CC[C@]4(C)[C@H]3CC(=O)[C@]12C | 260 | 550 | 12800 |  |  | 
13 | C[C@H](CCC(=O)Nc1cc(Cl)c(S(N)(=O)=O)cc1S(N)(=O)=O)[C@H]1CC[C@H]2[C@@H]3[C@H](O)C[C@@H]4C[C@H](O)CC[C@]4(C)[C@H]3CC[C@]12C | 62 | 143 | 300 |  |  | 
14 | C[C@H](CCC(=O)NCCc1ccc(S(N)(=O)=O)cc1)[C@H]1CC[C@H]2[C@@H]3[C@H](O)C[C@@H]4C[C@H](O)CC[C@]4(C)[C@H]3CC[C@]12C | 86 | 235 | 3300 |  |  | 
15 | C[C@H](CCC(=O)OCc1ccc(S(N)(=O)=O)cc1)[C@H]1CC[C@H]2[C@@H]3CC[C@@H]4C[C@H](O)CC[C@]4(C)[C@H]3CC[C@]12C | 92 | 313 | 800 |  |  | 
16 | C[C@H](CCC(=O)Nc1ccc(S(N)(=O)=O)cc1Cl)[C@H]1CC[C@H]2[C@@H]3CC[C@@H]4C[C@H](O)CC[C@]4(C)[C@H]3CC[C@]12C | 47 | 54 | 720 |  |  | 
17 | C[C@H](CCC(=O)/N=c1\sc(S(N)(=O)=O)nn1C)[C@H]1CC[C@H]2[C@@H]3[C@H](O)C[C@@H]4C[C@H](O)CC[C@]4(C)[C@H]3CC[C@]12C | 13 | 100 | 514 |  |  | 
18 | C[C@H](CCC(=O)NCCC(=O)Nc1nnc(S(N)(=O)=O)s1)[C@H]1CC[C@H]2[C@@H]3C(=O)C[C@@H]4CC(=O)CC[C@]4(C)[C@H]3CC(=O)[C@]12C | 1.1 | 7 | 22 |  |  | 

The next lines start with results.

Row | Ki (Carbonic anhydrase 2) [nM] | Ki (Carbonic anhydrase 4) [nM] | Ki (Carbonic anhydrase 1) [nM] | Structure (SMILES) | Level (Oryctolagus cuniculus [1]) [µM] | Level (Oryctolagus cuniculus [2]) [µM] | Level (Oryctolagus cuniculus [3])
19 | 47 | 110 | 415 | C[C@H](CCC(=O)Nc1ccc(S(N)(=O)=O)cc1I)[C@H]1CC[C@H]2[C@@H]3CC[C@@H]4C[C@H](O)CC[C@]4(C)[C@H]3C[C@H](O)[C@]12C |  |  | 
20 | 77 | 151 | 890 | C[C@H](CCC(=O)Nc1ccc(S(N)(=O)=O)cc1Cl)[C@H]1CC[C@H]2[C@@H]3CC[C@@H]4C[C@H](O)CC[C@]4(C)[C@H]3C[C@H](O)[C@]12C |  |  | 
21 | 35 | 60 | 600 | C[C@H](CCC(=O)Nc1ccc(S(N)(=O)=O)cc1Br)[C@H]1CC[C@H]2[C@@H]3[C@H](O)C[C@@H]4C[C@H](O)CC[C@]4(C)[C@H]3C[C@H](O)[C@]12C |  |  | 
22 | 31 | 50 | 365 | C[C@H](CCC(=O)Nc1ccc(S(N)(=O)=O)cc1Br)[C@H]1CC[C@H]2[C@@H]3CC[C@@H]4C[C@H](O)CC[C@]4(C)[C@H]3C[C@H](O)[C@]12C |  |  | 
23 | 230 | 980 | 12700 | C[C@H](CCC(=O)Nc1cccc(S(N)(=O)=O)c1)[C@H]1CC[C@H]2[C@@H]3CC[C@@H]4C[C@H](O)CC[C@]4(C)[C@H]3C[C@H](O)[C@]12C |  |  | 
24 | 50 | 133 | 1280 | C[C@H](CCC(=O)Nc1ccc(S(N)(=O)=O)cc1F)[C@H]1CC[C@H]2[C@@H]3[C@H](O)C[C@@H]4C[C@H](O)CC[C@]4(C)[C@H]3C[C@H](O)[C@]12C |  |  | 
25 | 210 | 1250 | 21400 | C[C@H](CCC(=O)Nc1cccc(S(N)(=O)=O)c1)[C@H]1CC[C@H]2[C@@H]3[C@H](O)C[C@@H]4C[C@H](O)CC[C@]4(C)[C@H]3CC[C@]12C |  |  | 
26 | 50 | 205 | 420 | C[C@H](CCC(=O)Nc1nnc(S(N)(=O)=O)s1)[C@H]1CC[C@H]2[C@@H]3[C@H](O)C[C@@H]4C[C@H](O)CC[C@]4(C)[C@H]3C[C@H](O)[C@]12C |  |  | 
27 | 53 | 104 | 510 | C[C@H](CCC(=O)Nc1ccc(S(N)(=O)=O)cc1I)[C@H]1CC[C@H]2[C@@H]3[C@H](O)C[C@@H]4C[C@H](O)CC[C@]4(C)[C@H]3C[C@H](O)[C@]12C |  |  | 
